Where a name gives a salt, the structure may show the parent alone.
Target: T1, N-type calcium channel (Homo sapiens, UniProt Q00975)
T1 construct: Cell line was differentiated according to the method described in FEBS Lett. (1988) 235 178-182; endogenous in cells; host or cells: unnamed cell line, differentiated per FEBS Lett. (1988) 235 178-182
Assay: Determination of inhibitory activity on N-type calcium channel (Fura-2 calcium influx, KCl depolarization, with nifedipine)
Format: cell-based
Conditions: compound at final concentration of 3 μM, depolarized with 80 mM KCl, Fura-2 fluorescence, read-out: Inhibitory effect on calcium flow (%)
Procedure: Determination of Inhibitory Activity on N-type Calcium Channel:
Cell line was differentiated according to the method described in FEBS Lett. (1988) 235 178-182. The cell was loaded with fluoriescent reagent, Fura-2 AM (at the final concentration of 10 μM), at 37° C. for 30 minutes and suspended in Krebs-buffer containing HEPES (25 mM) to obtain the cell suspension. The obtained cell suspension was incubated in the presence or absence of the compounds of the present invention with nifedipine for 5 minutes. The cell was depolarized by adding potassium chloride solution (at the final concentration of 80 mM) thereto and then a fluorescence intensity at the emission wavelength of 500 nm excited by the UV of 340 nm and 380 nm alternately was measured using the intracellular calcium analyzer (Nippon Bunko Co., CAF-110). The inhibitory activity of the compound of the present invention (at the final concentration of 3 μM) on calcium influx into the cell was calculated from the difference in changing the fluorescence intensity at peak (ΔR) according to the following equation. [formula]

T1 sequence (Q00975 whole entry): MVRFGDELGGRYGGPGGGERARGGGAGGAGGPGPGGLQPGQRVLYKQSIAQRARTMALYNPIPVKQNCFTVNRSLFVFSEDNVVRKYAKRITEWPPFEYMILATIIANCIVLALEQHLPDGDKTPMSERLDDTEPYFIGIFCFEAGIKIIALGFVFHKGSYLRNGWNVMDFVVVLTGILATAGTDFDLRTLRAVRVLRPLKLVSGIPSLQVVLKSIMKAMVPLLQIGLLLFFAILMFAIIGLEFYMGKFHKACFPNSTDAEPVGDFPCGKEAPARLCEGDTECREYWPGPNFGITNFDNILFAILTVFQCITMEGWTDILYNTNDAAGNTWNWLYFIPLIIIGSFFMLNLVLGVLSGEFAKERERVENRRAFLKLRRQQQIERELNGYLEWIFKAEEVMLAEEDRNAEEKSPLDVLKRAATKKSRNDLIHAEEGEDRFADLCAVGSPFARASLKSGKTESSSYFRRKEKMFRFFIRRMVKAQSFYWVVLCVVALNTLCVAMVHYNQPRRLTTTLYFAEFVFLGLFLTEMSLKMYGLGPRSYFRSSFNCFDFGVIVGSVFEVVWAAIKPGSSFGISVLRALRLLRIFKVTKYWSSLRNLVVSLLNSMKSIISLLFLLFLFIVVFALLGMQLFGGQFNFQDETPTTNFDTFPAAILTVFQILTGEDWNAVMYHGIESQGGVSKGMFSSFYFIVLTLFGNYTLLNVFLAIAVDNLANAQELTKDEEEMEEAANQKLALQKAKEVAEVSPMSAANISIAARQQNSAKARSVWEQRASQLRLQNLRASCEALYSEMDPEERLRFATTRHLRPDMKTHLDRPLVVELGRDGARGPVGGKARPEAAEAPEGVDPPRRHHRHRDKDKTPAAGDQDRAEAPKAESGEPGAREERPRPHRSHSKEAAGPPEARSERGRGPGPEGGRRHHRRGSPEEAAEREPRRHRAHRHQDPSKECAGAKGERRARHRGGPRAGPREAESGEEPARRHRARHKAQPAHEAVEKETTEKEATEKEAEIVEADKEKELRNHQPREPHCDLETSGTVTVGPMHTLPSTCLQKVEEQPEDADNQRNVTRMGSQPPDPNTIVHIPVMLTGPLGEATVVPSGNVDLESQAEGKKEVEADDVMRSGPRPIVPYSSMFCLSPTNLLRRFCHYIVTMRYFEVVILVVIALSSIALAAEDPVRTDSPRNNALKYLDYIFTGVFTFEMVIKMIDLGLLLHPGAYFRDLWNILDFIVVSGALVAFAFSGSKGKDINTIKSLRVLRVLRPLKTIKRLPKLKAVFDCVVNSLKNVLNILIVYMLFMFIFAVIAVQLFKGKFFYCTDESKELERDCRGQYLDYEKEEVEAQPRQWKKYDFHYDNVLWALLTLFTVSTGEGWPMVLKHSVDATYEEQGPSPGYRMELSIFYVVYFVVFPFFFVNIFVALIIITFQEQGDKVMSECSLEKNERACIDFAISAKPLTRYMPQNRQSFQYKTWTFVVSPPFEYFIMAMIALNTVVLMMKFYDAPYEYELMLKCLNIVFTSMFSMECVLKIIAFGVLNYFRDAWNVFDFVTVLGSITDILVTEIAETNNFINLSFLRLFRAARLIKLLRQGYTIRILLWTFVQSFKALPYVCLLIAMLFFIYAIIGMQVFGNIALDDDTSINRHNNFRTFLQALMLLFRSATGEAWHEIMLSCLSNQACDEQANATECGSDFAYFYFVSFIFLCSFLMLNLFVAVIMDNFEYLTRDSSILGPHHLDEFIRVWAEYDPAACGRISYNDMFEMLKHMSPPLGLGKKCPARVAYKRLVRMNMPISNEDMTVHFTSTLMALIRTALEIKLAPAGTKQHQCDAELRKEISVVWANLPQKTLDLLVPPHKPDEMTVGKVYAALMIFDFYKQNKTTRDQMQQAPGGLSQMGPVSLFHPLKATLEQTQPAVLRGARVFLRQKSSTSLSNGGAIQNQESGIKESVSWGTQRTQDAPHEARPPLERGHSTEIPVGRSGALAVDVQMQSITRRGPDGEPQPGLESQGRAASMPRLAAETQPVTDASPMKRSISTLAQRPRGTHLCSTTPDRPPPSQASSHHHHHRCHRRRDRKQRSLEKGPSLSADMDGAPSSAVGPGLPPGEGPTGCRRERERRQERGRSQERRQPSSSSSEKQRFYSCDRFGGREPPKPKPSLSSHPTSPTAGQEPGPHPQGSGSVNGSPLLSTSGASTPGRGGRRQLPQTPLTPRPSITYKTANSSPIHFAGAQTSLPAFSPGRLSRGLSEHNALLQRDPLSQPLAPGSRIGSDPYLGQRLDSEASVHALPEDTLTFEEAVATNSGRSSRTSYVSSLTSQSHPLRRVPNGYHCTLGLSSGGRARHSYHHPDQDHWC

inhibition at 3 µM	SMILES
81%	COCCOC(=O)N1CSC[C@H]1C(=O)N[C@@H](CSCC1CCCCC1)C(=O)NC1CCN(Cc2ccccc2)CC1 [compound 11]
89%	CC(C)(C)CC(=O)N1CSC[C@H]1C(=O)N[C@@H](CSCC1CCCCC1)C(=O)NC1CCN(Cc2ccccc2)CC1 [11 (2), (2R)-N-(1-benzylpiperidin-4-yl)-3-cyclohexylmethylthio-2-((4R)-3-(3,3-dimethylbutyryl)thiazolidin-4-ylcarbonylamino)propanamide.hydrochloride]
